In patent publication EP1339725B1, “DNA METHYL TRANSFERASE INHIBITORS” (priority 2000, dated 2002):

Key:
Brucella abortus CcrM = Brucella abortus CcrM (Brucella abortus, UniProt Q2YMK2); format: biochemical
[1] = tested on: Caulobacter crescentus (CB15N); assay: Caulobacter crescentus cell growth assay; format: cell-based; conditions: PYE media with 200 µg/mL ampicillin, 30°C, growth monitored at 630 nm up to 22 hours
[2] = tested on: Bacillus subtilis (ATCC #33234); assay: Bacillus subtilis cell growth assay; format: cell-based; conditions: LB media without antibiotics, 37°C, growth monitored up to 7.5 hours

Brucella abortus CcrM, sequence (Q2YMK2 whole entry, looked up): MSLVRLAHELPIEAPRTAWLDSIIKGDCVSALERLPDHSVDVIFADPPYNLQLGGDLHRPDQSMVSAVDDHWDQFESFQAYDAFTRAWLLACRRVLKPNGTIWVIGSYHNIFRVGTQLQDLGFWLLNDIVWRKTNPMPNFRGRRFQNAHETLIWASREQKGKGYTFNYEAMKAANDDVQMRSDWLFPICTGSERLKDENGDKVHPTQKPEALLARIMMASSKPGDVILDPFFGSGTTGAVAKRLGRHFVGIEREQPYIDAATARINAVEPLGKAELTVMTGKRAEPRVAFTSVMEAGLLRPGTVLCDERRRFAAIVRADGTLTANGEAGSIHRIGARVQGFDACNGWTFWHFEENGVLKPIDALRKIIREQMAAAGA

| Molecule | % reaction Brucella abortus CcrM Activity (Brucella abortus CcrM) [%] | IC50 [1] [µM] | IC50 [2] [µM] |
| --- | --- | --- | --- |
| Fc1ccc(B(Oc2cccc3cccnc23)c2ccc(F)cc2)cc1 [Compound 11ii, Di-(4-fluorophenyl)borinic acid 8-hydroxyquinoline ester] | 61 | – | – |
| Clc1ccc(B(Oc2cccc3cccnc23)c2ccc(Cl)cc2)cc1 [Compound 11iii, Di-(4-chlorophenyl)borinic acid 8-hydroxyquinoline ester] | 61 | – | – |
| c1cnc2c(OB(c3ccc4c(c3)OCO4)c3ccc4c(c3)OCO4)cccc2c1 [Compound 11vi, Di-(3,4-methylenedioxyphenyl)borinic acid 8-hydroxyquinoline ester] | 42 | – | – |
| c1csc(B(Oc2cccc3cccnc23)c2cccs2)c1 [Compound 11viii, Di-(2-thienyl)borinic acid 8-hydroxyquinoline ester] | 74 | – | – |
| Cc1ccc2cccc(OB(c3ccc(F)cc3)c3ccc(F)cc3)c2n1 [Compound 12ii, Di-(p-fluorophenyl)borinic acid 8-hydroxyquinaldine ester] | 17 | – | – |
| Cc1ccc2cccc(OB(c3ccc(Cl)cc3)c3ccc(Cl)cc3)c2n1 [Compound 12iii, Di-(p-chlorophenyl)borinic acid 8-hydroxyquinaldine ester] | 40 | – | – |
| COc1ccc(B(Oc2cccc3ccc(C)nc23)c2ccc(OC)cc2)cc1 [Compound 12vii, Di-(4-methoxyphenyl)borinic acid 8-hydroxyquinaldine ester] | 56 | – | – |
| Fc1ccc(B(Oc2ccc(Cl)c3cccnc23)c2ccc(F)cc2)cc1 [Compound 13ii, Di-(p-fluorophenyl)borinic acid 5-chloro-8-hydroxyquinaline ester] | 55 | – | – |
| Clc1ccc(B(Oc2ccc(Cl)c3cccnc23)c2ccc(Cl)cc2)cc1 [Compound 13iii, Di-(p-chlorophenyl)borinic acid 5-chloro-8-hydroxyquinaline ester] | 81 | – | – |
| O=[N+]([O-])c1ccc(OB(c2ccc3c(c2)OCO3)c2ccc3c(c2)OCO3)c2ncccc12 [Compound 14vi, Di-(3,4-methylenedioxyphenyl)borinic acid 8-hydroxy-5-nitroquinoline ester] | 21 | – | – |
| c1ccc(B(OCc2ccccn2)c2ccccc2)cc1 [Compound 16i, Diphenylborinic acid pyridine-2-methanol] | 93 | – | – |
| c1ccc(B(OC[C@@H]2CCCN2)c2ccccc2)cc1 [Compound 18i, Diphenylborinic acid (S)-(+)-pyrrolidine-2-methanol] | 81 | > 100 | > 100 |
| NCCOB(c1ccc(F)cc1)c1ccc(F)cc1 [Compound 19ii, Di-(4-fluorophenyl)borinic acid ethanolamine ester] | 8 | – | – |
| Diphenylborinic acid 2-amino-1-phenylpropanol [Compound 17i] | 114 | > 100 | > 100 |
